From patent US7473711B2, “Androgen modulators” (Pfizer Inc., priority 2004, dated 2009)
pIC50: −log10 of the molar value.

target: T1, androgen receptor in MDA-MB453-MMTV clone 54-19 cells (Homo sapiens, UniProt P10275); test: AR antagonist cell assay (MMTV-luciferase reporter, 100 pM DHT); format: cell-based; conditions: read-out: AR Cell IC50; MDA-MB453-MMTV clone 54-19, inhibition of 100 pM DHT induced luciferase, 17 hr; mean of multiple tests
T1 sequence (P10275 1-920 Q868H): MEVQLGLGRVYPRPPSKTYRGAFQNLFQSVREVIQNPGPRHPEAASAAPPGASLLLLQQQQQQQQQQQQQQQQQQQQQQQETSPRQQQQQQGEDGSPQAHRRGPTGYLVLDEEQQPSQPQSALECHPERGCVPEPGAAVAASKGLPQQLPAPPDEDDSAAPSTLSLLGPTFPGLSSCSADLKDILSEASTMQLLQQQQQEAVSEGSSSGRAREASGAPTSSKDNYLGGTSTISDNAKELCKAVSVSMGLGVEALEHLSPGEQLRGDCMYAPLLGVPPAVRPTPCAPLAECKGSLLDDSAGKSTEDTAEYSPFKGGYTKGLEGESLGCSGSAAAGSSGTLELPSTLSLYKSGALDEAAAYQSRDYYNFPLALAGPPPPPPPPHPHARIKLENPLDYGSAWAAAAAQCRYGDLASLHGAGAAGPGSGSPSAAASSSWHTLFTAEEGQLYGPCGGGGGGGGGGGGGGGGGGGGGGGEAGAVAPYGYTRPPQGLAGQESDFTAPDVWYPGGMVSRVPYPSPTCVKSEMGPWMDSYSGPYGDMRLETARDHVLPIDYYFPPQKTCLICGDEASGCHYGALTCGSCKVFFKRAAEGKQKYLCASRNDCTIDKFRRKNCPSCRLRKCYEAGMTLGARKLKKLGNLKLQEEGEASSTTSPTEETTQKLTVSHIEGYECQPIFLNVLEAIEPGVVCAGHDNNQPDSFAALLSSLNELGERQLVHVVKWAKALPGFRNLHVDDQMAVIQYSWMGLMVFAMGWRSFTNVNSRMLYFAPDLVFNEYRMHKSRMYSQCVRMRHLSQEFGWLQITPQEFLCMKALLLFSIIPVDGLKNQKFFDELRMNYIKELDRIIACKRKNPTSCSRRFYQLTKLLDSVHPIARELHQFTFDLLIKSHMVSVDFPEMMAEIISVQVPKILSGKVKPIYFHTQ
Method: The compounds ability to antagonize the effects of androgen on the androgen receptor were determined in a whole cell assay as described immediately below.
Experimental Procedure for AR Antagonist Cell Assay
Cell line: MDA-MB453-MMTV clone 54-19. This cell line is a stable transfected cell line with MDA-MB453 cell background (a human breast tumor cell line expressing androgen receptor). A MMTV minimal promoter containing ARE was first cloned in front of a firefly luciferase reporter gene. Then the cascade was cloned into transfection vector pUV120puro. Electroporation method was used for transfecting MDA-MB-453 cell. Puromycin resistant stable cell line was selected. Cell Culture Media and Reagents:
Culture medium: DMEM (high glucose, Gibco cat #: 11960-044), 10% FBS, and 1% L-glutamine
Plating medium: DMEM (phenol red free), 10% charcoal treated HyClone serum, 1% L-glutamine
Assay medium: DMEM (phenol red free), 1% charcoal treated HyClone serum, 1% L-glutamine, and 1% penicillin/streptomycin
3X luciferase buffer: 2% beta-mercaptoethanol, 0.6% ATP, 0.0135% luciferine in cell lysis buffer
• 1. Cells are maintained in culture medium, splitting cells when they reach 80-90% confluence • 2. To test compounds, 10,000 cells/well are plated to opaque 96 cell culture plate in 100 ul/well plating medium, culture for overnight at 37° C. in cell culture incubator • 3. Carefully remove plating medium, then add 80 ul/well of pre-warmed assay medium, add 10 ul/well testing compound (final concentration at) 1000 nM, 200 nM, 40 nM, 8 nM, 1.6 nM, and 0.32 nM), incubate at 37° C. for 30 minutes • 4. Add 10 ul/well freshly prepared DHT (final concentration at 100 pM) to each well, incubate at 37° C. for 17 hr (overnight) • 5. Add 50 ul/well 3X luciferase buffer, incubate at room temperature for 5 minutes, then count on Luminometer
The fold induction over background by 100 pM DHT in the absence of testing compounds is standardized as 100% and experimental result is expressed as percentage of inhibition by testing compounds.
The results are reported as the mean of multiple tests as described below (the numbers of tests are indicated in the footnote). N.D. denotes that the compound was not tested.

SMILES | pIC50
COCC(COc1ccccc1)Oc1ccc(C#N)c(C(F)(F)F)c1 (stereo not drawn) [Example 27, 4-(1-Methoxymethyl-2-phenoxy-ethoxy)-2-trifluoromethyl-benzonitrile] | 7.72
N#Cc1ccc(OC(CO)COc2ccccc2)cc1C(F)(F)F (stereo not drawn) [Example 28, 4-(1-Hydroxymethyl-2-phenoxy-ethoxy)-2-trifluoromethyl-benzonitrile] | 7.16
N#Cc1ccc(OCCCCCOc2ccc(C#N)c(C(F)(F)F)c2)cc1C(F)(F)F [Example 24] | 7.19
